Assay results published in patent publication US8791163B2 (McGill University, priority 2006, dated 2014).

Legend:
[1] = molecular target: T1, cloned human MT2 receptors (Homo sapiens, UniProt P49286); experiment: 2-[125I]iodomelatonin competition binding, human MT2 in NIH3T3 cells; details: human MT2 in NIH3T3 cells, calculated from IC50 by Cheng-Prusoff, mean of at least three determinations
T1 construct: expressed in transfected cells
T1 sequence (P49286 1-362): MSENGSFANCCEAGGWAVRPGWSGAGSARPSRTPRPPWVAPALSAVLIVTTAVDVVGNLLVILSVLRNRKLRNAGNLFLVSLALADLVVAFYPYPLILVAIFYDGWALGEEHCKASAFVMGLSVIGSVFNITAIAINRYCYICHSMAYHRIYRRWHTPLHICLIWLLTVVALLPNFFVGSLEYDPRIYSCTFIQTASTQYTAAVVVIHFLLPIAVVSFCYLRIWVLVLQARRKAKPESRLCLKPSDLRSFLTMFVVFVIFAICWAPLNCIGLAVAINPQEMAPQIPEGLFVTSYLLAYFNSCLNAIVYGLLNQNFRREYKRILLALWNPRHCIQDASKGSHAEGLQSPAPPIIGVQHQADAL
Experimental: (§1) Membranes were incubated for 90 min at 37° C. in binding buffer (Tris/HCl 50 mM, pH 7.4). The final membrane concentration was 5-10 μg of protein per tube. […] The pKi values are the mean of at least three independent determinations performed in duplicate. To define the functional activity of the compounds of Formula (I) at the MT1 and MT2 receptor subtypes, [^35S]GTPγS binding assays in NIH3T3 cells expressing human-cloned MT1 or MT2 receptors were performed. The amount of bound [^35S]GTPγS is proportional to the level of analogue-induced G-protein activation and is related to the intrinsic activity of the compound (i.e. a compound of Formula (I)) under study. […] Nonspecific binding was assessed using non-radiolabeled GTPγS (10 μM). […] Basal stimulation is the amount of [^35S]GTPγS specifically bound in the absence of the compounds of Formula (I) and was taken as 100%. […] All of the measurements were performed in triplicate.

[2] = molecular target: T2, cloned human MT1 receptors (Homo sapiens, UniProt P48039); experiment: [35S]GTPγS binding assay, NIH3T3 cells expressing human MT1; format: biochemical; details: for MT1 IAr ± SEM (relative intrinsic activity): maximal net effect relative to MLT; on MT1 Activity: key: A = agonist; PA = partial agonist; ANT = antagonist; IA = Inverse agonist
T2 construct: expressed in transfected cells
Experimental: as §1

[3] = molecular target: T1, cloned human MT2 receptors; experiment: [35S]GTPγS binding assay, NIH3T3 cells expressing human MT2; format: biochemical; details: for MT2 IAr ± SEM (relative intrinsic activity): maximal net effect relative to MLT; on MT2 Activity: key: A = agonist; PA = partial agonist; ANT = antagonist; IA = Inverse agonist
Experimental: as §1

[4] = molecular target: T2, cloned human MT1 receptors; experiment: 2-[125I]iodomelatonin competition binding, human MT1 in NIH3T3 cells; details: calculated from IC50 by Cheng-Prusoff, mean of at least three determinations
Experimental: as §1

T2 sequence (P48039 whole entry): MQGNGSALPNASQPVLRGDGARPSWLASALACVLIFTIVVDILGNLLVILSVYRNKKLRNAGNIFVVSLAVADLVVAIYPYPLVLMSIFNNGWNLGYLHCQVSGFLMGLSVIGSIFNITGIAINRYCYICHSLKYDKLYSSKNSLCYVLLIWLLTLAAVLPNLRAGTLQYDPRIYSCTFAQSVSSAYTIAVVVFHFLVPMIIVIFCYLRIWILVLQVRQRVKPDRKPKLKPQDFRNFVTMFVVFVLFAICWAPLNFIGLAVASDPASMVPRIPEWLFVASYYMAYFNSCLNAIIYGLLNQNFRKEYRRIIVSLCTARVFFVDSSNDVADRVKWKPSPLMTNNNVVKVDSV

Compound	MT2 pKi [1]	MT1 IAr ± SEM (relative intrinsic activity) [2]	MT2 Activity [3]	MT2 IAr ± SEM (relative intrinsic activity) [3]	MT1 pKi [4]	MT1 Activity [2]	Ki ([1]; read-out: MT2 pKi (converted)) [nM]	Ki ([4]; read-out: MT1 pKi (converted)) [nM]
COc1cccc(N(CCNC(C)=O)c2cccc(OC)c2)c1 [5c, N-[2-(bis-3-methoxyphenylamino)ethyl]acetamide]	10.56 ± 0.10	0.59 ± 0.05	ANT	0.15 ± 0.01	7.72 ± 0.13			
COc1ccc(N(CCNC(C)=O)c2cccc(OC)c2)cc1 [5d, N-{2-[(4-Methoxyphenyl)-3-methoxyphenylamino]ethyl}acetamide]	9.06 ± 0.10	0.06 ± 0.03	ANT	0.03 ± 0.01	7.00 ± 0.01	ANT		
CC(=O)NCCN(c1ccccc1)c1cccc(Br)c1 [5f, N-{2-[(3-bromophenyl)-phenylamino]ethyl}acetamide]	9.70 ± 0.43	0.43 ± 0.04		0.36 ± 0.01	7.77 ± 0.19			
COc1cccc(N(CCNC(C)=O)c2ccc3ccccc3c2)c1 [5g, N-{2-[(3-Methoxyphenyl)-β-naphthylamino]ethyl}acetamide]	9.95 ± 0.64	0.17 ± 0.03		−0.20 ± 0.03	6.88 ± 0.07	ANT		
CC(=O)NCCN(c1ccccc1)c1cccc(OCCCCc2ccccc2)c1 [5i]	6.48 ± 0.29	0.12 ± 0.02	ANT	0.01 ± 0.01	7.45 ± 0.01	ANT		
COc1cccc(N(CCNC(C)=O)Cc2ccccc2)c1 [5k, N-{2-[(3-Methoxyphenyl)-benzylamino]ethyl}acetamide]	9.12 ± 0.05	0.92 ± 0.06		0.31 ± 0.02	7.30 ± 0.10			
COc1cccc(NCCNC(C)=O)c1 [5l, N-[2{(3-Methoxyphenyl)-amino]ethyl}acetamide]		0.84 ± 0.01		0.94 ± 0.03	8.28 ± 0.01		7.59	
COc1cccc(N(C)CCCNC(C)=O)c1 [5m, N-{3-[(3-Methoxyphenyl)-methylamino]propyl}acetamide]	8.70 ± 0.26	0.87 ± 0.05		1.07 ± 0.06	9.08 ± 0.04			
COc1cccc(N(CCNC(=O)C2CCC2)c2ccccc2)c1 [5o, N-{2-[(3-Methoxyphenyl)-phenylamino]ethyl}cyclobutancarboxamide]	8.43 ± 0.40	0.22 ± 0.01		0.29 ± 0.01				331
COc1cccc(N(CCN(C)C(C)=O)c2ccccc2)c1 [compound 6]	7.28 ± 0.06	−0.01 ± 0.03	ANT	−0.01 ± 0.03	5.89 ± 0.07	ANT		
